From patent publication US7732424B2, “Purine derivatives and methods of use thereof” (Inotek Pharmaceuticals Corporation, priority 2005, dated 2010)
Where two headings read alike, the source gives them in different places.

What was measured:
[1] = biological target: T1, human recombinant A2A adenosine receptor (Homo sapiens, UniProt P29274); test: Adenosine A2A receptor binding, displacement of [^3H]NECA in transfected CHO cells
T1 construct: expressed in transfected cells
Procedure: (§1) Membranes for radioligand binding experiments were prepared from fresh or frozen cells as described in Klotz et al., Naunyn-Schmiedeberg's Arch. Pharmacol., 357:1-9 (1998). The cell suspension was then homogenized in ice-cold hypotonic buffer (5 mM Tris/HCl, 2 mM EDTA, pH 7.4) and the resultant homogenate was spun for 10 minutes (4° C.) at 1,000 g. The membranes were then sedimented from the supernatant for 30 minutes at 100,000 g and resuspended in 50 mM Tris/HCl buffer pH 7.4 (for A3 adenosine receptors: 50 mM Tris/HCl, 10 mM MgCl2, 1 mM EDTA, pH 8.25), frozen in liquid nitrogen at a protein concentration of 1-3 mg/mL and stored at −80° C.
(§2) Nonspecific binding was determined in the presence of 100 μM R-PIA and 1 mM theophylline, respectively. For details see Klotz et al., Naunyn-Schmiedeberg's Arch. Pharmacol., 357:1-9, 1998. All binding data were calculated by non-linear curve fitting using the program SCTFIT (De Lean et al., Mol. Pharm. 1982, 21:5-16).

[2] = biological target: human recombinant A1 adenosine receptor (Homo sapiens, UniProt P30542); test: Adenosine A1 receptor binding, displacement of [^3H]CCPA in transfected CHO cells
Procedure: as §1, §2

male Sprague-Dawley rats = test: Effect on core body temperature in rats; format: in vivo; parameters: Rectal Temperature: unit not given here; conditions: for Behavior / Rectal Temperature / Respiratory Rate / Respiration Rate: rat at 13° C., 15 mg/kg JV then 20 mg/mL at 1 mL/h
Procedure: Their rectal temperature, respiratory rate, and behavior were recorded following 5 min, 10 min, 20 min, 30 min, 1 h, 1.5 h, 2 h, 2.5 h, 3 h, 3.5 h, and 4 h.

[3] = test system: New Zealand white rabbits; test: Effect on intraocular pressure (IOP) in rabbits; format: in vivo, rabbit
Procedure: The effect of an illustrative Purine Derivative on intraocular pressure (IOP) was examined in New Zealand white rabbits. New Zealand white rabbits undergo a circadian change in intraocular pressure, such that lowest pressure values occur in the early morning and peak pressure values occur in the afternoon. […] Consistency of measurements is indicated by the fact the intraocular pressure at t=−23 hours and t=25 hours is essentially the same (see FIGS. 1-5).
One rabbit was administered with each each dose level. […] Thus, Compound I′-1 was administered when the level of intraocular pressure was low relative to other timepoints during the day and night.

[4] = biological target: T2, human recombinant A3 adenosine receptor (Homo sapiens, UniProt P0DMS8); test: Adenosine A3 receptor binding, displacement of [^3H]NECA in transfected HEK cells; conditions: displacement of specific [^3H]NECA binding, geometric mean
T2 construct: expressed in transfected cells
T2 sequence (P0DMS8 1-318): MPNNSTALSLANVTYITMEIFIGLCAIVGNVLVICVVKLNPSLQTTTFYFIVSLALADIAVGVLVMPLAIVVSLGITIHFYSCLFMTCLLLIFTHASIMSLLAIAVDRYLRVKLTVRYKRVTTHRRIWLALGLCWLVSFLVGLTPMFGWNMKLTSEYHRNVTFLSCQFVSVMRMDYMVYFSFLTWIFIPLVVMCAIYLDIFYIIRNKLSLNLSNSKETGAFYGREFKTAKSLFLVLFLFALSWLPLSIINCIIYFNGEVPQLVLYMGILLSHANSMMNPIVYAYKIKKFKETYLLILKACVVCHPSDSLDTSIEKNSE
Procedure: as §1, §2

T1 sequence (P29274 whole entry): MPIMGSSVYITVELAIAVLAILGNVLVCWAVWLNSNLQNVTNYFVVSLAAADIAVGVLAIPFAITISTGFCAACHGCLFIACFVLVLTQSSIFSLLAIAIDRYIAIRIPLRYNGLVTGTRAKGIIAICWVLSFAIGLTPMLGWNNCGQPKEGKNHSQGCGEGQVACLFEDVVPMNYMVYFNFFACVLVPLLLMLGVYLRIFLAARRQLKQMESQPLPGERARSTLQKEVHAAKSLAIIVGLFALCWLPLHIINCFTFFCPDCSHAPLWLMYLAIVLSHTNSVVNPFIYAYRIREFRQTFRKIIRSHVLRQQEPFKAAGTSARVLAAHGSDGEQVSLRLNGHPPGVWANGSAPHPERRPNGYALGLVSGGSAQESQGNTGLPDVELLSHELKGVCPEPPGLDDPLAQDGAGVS
Sequence of human recombinant A1 adenosine receptor (P30542 whole entry): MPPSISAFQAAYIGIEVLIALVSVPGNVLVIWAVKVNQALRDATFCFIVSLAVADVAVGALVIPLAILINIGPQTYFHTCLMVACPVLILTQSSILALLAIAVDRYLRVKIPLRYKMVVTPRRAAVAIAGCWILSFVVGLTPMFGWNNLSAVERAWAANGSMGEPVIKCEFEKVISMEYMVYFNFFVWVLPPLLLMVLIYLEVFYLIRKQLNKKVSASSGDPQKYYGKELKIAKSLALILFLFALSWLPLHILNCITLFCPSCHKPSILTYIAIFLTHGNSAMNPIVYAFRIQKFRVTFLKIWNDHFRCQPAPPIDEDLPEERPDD

OC[C@H]1O[C@@H](n2cnc3c(NC4CCCC4)nc(Cl)nc32)[C@H](O)[C@@H]1O [[^3H]CCPA, 2-chloro-N^6-[^3H]cyclopentyladenosine, reference compound]
Ki ([1]; displacement of specific [^3H]NECA binding, CHO cells, geometric mean, read-out: Ki(A2A)): 2.27 µM

OC[C@H]1O[C@@H](n2cnc3c(NC4(CO)CCCC4)ncnc32)[C@H](O)[C@@H]1O [I′-1]
Ki [2]: 0.00677 µM | Behavior (male Sprague-Dawley rats; Animal #1, 0 min): normal | Rectal Temperature (male Sprague-Dawley rats; Animal #1, 0 min): 38 | Respiratory Rate (male Sprague-Dawley rats; Animal #1, 0 min): 210 min⁻¹ | Behavior (male Sprague-Dawley rats; Animal #1, 5 min): sleep/ | Rectal Temperature (male Sprague-Dawley rats; Animal #1, 5 min): 38 | Behavior (male Sprague-Dawley rats; Animal #1, 10 min): sleep/ | Rectal Temperature (male Sprague-Dawley rats; Animal #1, 10 min): 37 | Respiratory Rate (male Sprague-Dawley rats; Animal #1, 10 min): 69 min⁻¹ | Behavior (male Sprague-Dawley rats; Animal #1, 20 min): sleep | Rectal Temperature (male Sprague-Dawley rats; Animal #1, 20 min): 36 | Respiratory Rate (male Sprague-Dawley rats; Animal #1, 20 min): 66 min⁻¹ | Behavior (male Sprague-Dawley rats; Animal #1, 30 min): sleep | Rectal Temperature (male Sprague-Dawley rats; Animal #1, 30 min): 36 | Respiratory Rate (male Sprague-Dawley rats; Animal #1, 30 min): 75 min⁻¹ | Behavior (male Sprague-Dawley rats; Animal #1, 1 h): sleep | Rectal Temperature (male Sprague-Dawley rats; Animal #1, 1 h): 32 | Respiration Rate (male Sprague-Dawley rats; Animal #1, 1 h): 42 min⁻¹ | Behavior (male Sprague-Dawley rats; Animal #1, 1.5 h): sleep | Rectal Temperature (male Sprague-Dawley rats; Animal #1, 1.5 h): 29 | Respiration Rate (male Sprague-Dawley rats; Animal #1, 1.5 h): 45 min⁻¹ | Behavior (male Sprague-Dawley rats; Animal #1, 2 h): sleep | Rectal Temperature (male Sprague-Dawley rats; Animal #1, 2 h): 27 | Respiration Rate (male Sprague-Dawley rats; Animal #1, 2 h): 54 min⁻¹ | Behavior (male Sprague-Dawley rats; Animal #1, 2.5 h): sleep | Rectal Temperature (male Sprague-Dawley rats; Animal #1, 2.5 h): 25 | Respiration Rate (male Sprague-Dawley rats; Animal #1, 2.5 h): 51 min⁻¹ | Behavior (male Sprague-Dawley rats; Animal #1, 3 h): sleep | Rectal Temperature (male Sprague-Dawley rats; Animal #1, 3 h): 24 | Respiration Rate (male Sprague-Dawley rats; Animal #1, 3 h): 42 min⁻¹ | Behavior (male Sprague-Dawley rats; Animal #1, 3.5 h): sleep | Rectal Temperature (male Sprague-Dawley rats; Animal #1, 3.5 h): 23 | Respiration Rate (male Sprague-Dawley rats; Animal #1, 3.5 h): 42 min⁻¹ | Behavior (male Sprague-Dawley rats; Animal #1, 4 h): sleep | Rectal Temperature (male Sprague-Dawley rats; Animal #1, 4 h): 21 | Respiration Rate (male Sprague-Dawley rats; Animal #1, 4 h): 42 min⁻¹ | Behavior (male Sprague-Dawley rats; Animal #2, 0 min): normal | Rectal Temperature (male Sprague-Dawley rats; Animal #2, 0 min): 39 | Respiratory Rate (male Sprague-Dawley rats; Animal #2, 0 min): 220 min⁻¹ | Behavior (male Sprague-Dawley rats; Animal #2, 5 min): normal | Rectal Temperature (male Sprague-Dawley rats; Animal #2, 5 min): 39 | Respiratory Rate (male Sprague-Dawley rats; Animal #2, 5 min): 99 min⁻¹ | Behavior (male Sprague-Dawley rats; Animal #2, 10 min): sleep/ | Rectal Temperature (male Sprague-Dawley rats; Animal #2, 10 min): 38 | Respiratory Rate (male Sprague-Dawley rats; Animal #2, 10 min): 84 min⁻¹ | Behavior (male Sprague-Dawley rats; Animal #2, 20 min): sleep/ | Rectal Temperature (male Sprague-Dawley rats; Animal #2, 20 min): 37 | Respiratory Rate (male Sprague-Dawley rats; Animal #2, 20 min): 57 min⁻¹ | Behavior (male Sprague-Dawley rats; Animal #2, 30 min): sleep/ | Rectal Temperature (male Sprague-Dawley rats; Animal #2, 30 min): 37 | Respiratory Rate (male Sprague-Dawley rats; Animal #2, 30 min): 51 min⁻¹ | Behavior (male Sprague-Dawley rats; Animal #2, 1 h): sleep | Rectal Temperature (male Sprague-Dawley rats; Animal #2, 1 h): 33 | Respiration Rate (male Sprague-Dawley rats; Animal #2, 1 h): 36 min⁻¹ | Behavior (male Sprague-Dawley rats; Animal #2, 1.5 h): sleep | Rectal Temperature (male Sprague-Dawley rats; Animal #2, 1.5 h): 30 | Respiration Rate (male Sprague-Dawley rats; Animal #2, 1.5 h): 36 min⁻¹ | Behavior (male Sprague-Dawley rats; Animal #2, 2 h): sleep | Rectal Temperature (male Sprague-Dawley rats; Animal #2, 2 h): 28 | Respiration Rate (male Sprague-Dawley rats; Animal #2, 2 h): 36 min⁻¹ | Behavior (male Sprague-Dawley rats; Animal #2, 2.5 h): sleep | Rectal Temperature (male Sprague-Dawley rats; Animal #2, 2.5 h): 27 | Respiration Rate (male Sprague-Dawley rats; Animal #2, 2.5 h): 30 min⁻¹ | Behavior (male Sprague-Dawley rats; Animal #2, 3 h): sleep | Rectal Temperature (male Sprague-Dawley rats; Animal #2, 3 h): 26 | Respiration Rate (male Sprague-Dawley rats; Animal #2, 3 h): 27 min⁻¹ | Behavior (male Sprague-Dawley rats; Animal #2, 3.5 h): sleep | Rectal Temperature (male Sprague-Dawley rats; Animal #2, 3.5 h): 25 | Respiration Rate (male Sprague-Dawley rats; Animal #2, 3.5 h): 24 min⁻¹ | Behavior (male Sprague-Dawley rats; Animal #2, 4 h): sleep | Rectal Temperature (male Sprague-Dawley rats; Animal #2, 4 h): 25 | Respiration Rate (male Sprague-Dawley rats; Animal #2, 4 h): 27 min⁻¹ | Effect on core body temperature (conclusion) (male Sprague-Dawley rats; rats, Tables 3A and 3B): reduces an animal's core body temperature | Survival of the animals (male Sprague-Dawley rats; two rats, 15 mg/kg JV then 20 mg/mL at 1 mL/h for 4 hours): Both animals survived the experiment | Effect on intraocular pressure (conclusion) ([3]; FIGS. 1-5): reduces an animal's intraocular pressure | Time of recovery of intraocular pressure values to normal levels ([3]; administered concentration 0.3 mg/mL (FIG. 1)): ~6 h | Time of recovery of intraocular pressure values to normal levels ([3]; administered concentration 30 mg/mL (FIG. 5)): > 7 h | Intraocular pressure course after administration ([3]; one drop to one eye at t=0 hours, FIGS. 1-5): the intraocular pressure did not increase to the normal day values | Eye irritation ([3]; topical ocular, 0.3-30.0 mg/mL): No eye irritation was observed in any animal | Ki [4]: 7.7 µM | Ki [1]: 28.1 µM

OC[C@H]1O[C@@H](n2cnc3c(NC4(CO)CCCC4)nc(Cl)nc32)[C@H](O)[C@@H]1O [I′-19]
Ki [2]: 0.00647 µM | Ki [4]: 5.96 µM | Ki [1]: 24 µM
